The target of this assay is T1, human adenosine A2b receptor (Homo sapiens, UniProt P29275).
T1 construct: expressed in transfected cells; host or cells: CHO-K1 (Chinese Hamster Ovary) with CRE-luciferase reporter
T1 sequence (P29275 1-332): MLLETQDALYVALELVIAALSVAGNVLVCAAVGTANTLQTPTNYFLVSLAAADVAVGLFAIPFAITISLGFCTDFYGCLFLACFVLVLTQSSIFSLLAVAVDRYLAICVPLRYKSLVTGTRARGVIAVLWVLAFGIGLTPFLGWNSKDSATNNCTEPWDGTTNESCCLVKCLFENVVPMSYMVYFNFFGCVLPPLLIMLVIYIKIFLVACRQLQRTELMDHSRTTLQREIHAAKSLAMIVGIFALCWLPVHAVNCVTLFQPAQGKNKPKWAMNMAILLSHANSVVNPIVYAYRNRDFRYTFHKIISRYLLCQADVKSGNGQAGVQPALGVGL
Put plainly: Cellular reporter gene (CRE-luciferase) A2b receptor antagonist assay in recombinant CHO-K1 cells stimulated with NECA. Type of assay: cell-based. The conditions noted are these: recombinant CHO-K1 cell line, co-incubation with EC50 concentration of NECA, 3 hours, in some cases means, rounded to two significant digits. How it is done: B-1. Cellular In Vitro Tests for Determining A2b Receptor Activity and Adenosine Receptor Selectivity
The identification of selective antagonists of the human adenosine A2b receptor and the quantification of the efficacy and selectivity of the compounds according to the invention was carried out with the aid of recombinant cell lines for the human adenosine receptors A1, A2a, A2b and A3. These cell lines were originally derived from an ovarepithelial cell of the hamster (Chinese Hamster Ovary, CHO-K1, American Type Culture Collection, Manassas, Va. 20108, USA). In addition to the respective recombinantly expressed adenosine receptor for testing the efficacy at the A1, A2a and A2b receptors, the cell lines contain a reporter gene construct where expression of the firefly (Photinus pyralis) luciferase is under the control of a promoter which can be activated via intracellular signal cascades by stimulation of the receptors with the (not subtype-selective) adenosine receptor agonist NECA (5′-N-ethylcarboxamidoadenosine) [S. J. Hill, J. G. Baker, S. Rhees, Curr. Opin. Pharmacol. 1, 526-532 (2001)].
In the case of the A2a and A2b cell lines, this is a minimal promoter having a plurality of cAMP-responsive elements (CRE). Stimulation of the Gs coupled A2b or A2a receptors by NECA ultimately leads, via formation of cAMP, to CRE-dependent induction of luciferase expression, which is detected 3 hours after the start of the incubation with NECA using a detection solution in a suitable luminometer. For testing the antagonists, initially, in a pre-experiment, the concentration of NECA which, at the test day in question, results in half-maximum stimulation of luciferase expression (EC50 concentration) is determined By joint incubation of this EC50 concentration of NECA with the substances to be tested, it is possible to determine their antagonistic activity.

Molecules are shown by their SMILES.

With `Cc1c(C(=O)N2CCC(O)CC2)sc2c1c(=O)n(CC(C)c1ccccc1)c(=O)n2CCC(F)(F)F` (single isomer, unassigned; enantiomer 2) [Example 45, 6-[(4-Hydroxypiperidin-1-yl)carbonyl]-5-methyl-3-(2-phenylpropyl)-1-(3,3,3-trifluoropropyl)thieno[2,3-d]pyrimidine-2,4(1H,3H)-dione (enantiomer 2)], the IC50 was 150 nM.
`CCn1c(=O)c2c(C)c(C(=O)N3CCC(O)C(O)C3)sc2n(CCC(F)(F)F)c1=O` (racemic) [Example 119, 6-[(3,4-Dihydroxypiperidin-1-yl)carbonyl]-3-ethyl-5-methyl-1-(3,3,3-trifluoropropyl)thieno [2,3-d]pyrimidine-2,4(1H,3H)-dione]: the 50% inhibitory concentration (IC50) turned out to be 210 nM.
`CCn1c(=O)c2c(CF)c(C(=O)N3CCC(O)CC3)sc2n(CCC(F)(F)F)c1=O` [Example 143, 3-Ethyl-5-(fluoromethyl)-6-[(4-hydroxypiperidin-1-yl)carbonyl]-1-(3,3,3-trifluoropropyl)thieno[2,3-d]pyrimidine-2,4(1H,3H)-dione]: the IC50 worked out at 82 nM.
To `COC(Cn1c(=O)c2c(C)c(C(=O)N3CCC(O)CC3)sc2n(CCC(F)(F)F)c1=O)c1ccccc1` (racemic) [Example 46, 6-[(4-Hydroxypiperidin-1-yl)carbonyl]-3-(2-methoxy-2-phenylethyl)-5-methyl-1-(3,3,3-trifluoropropyl)thieno[2,3-d]pyrimidine-2,4(1H,3H)-dione (racemate)] belongs 7.9 nM.
On to `Cc1c(C(=O)N2CCC(O)CC2)sc2c1c(=O)n(CC(C)c1ccccc1)c(=O)n2CCC(F)(F)F` (racemic) [Example 43, 6-[(4-Hydroxypiperidin-1-yl)carbonyl]-5-methyl-3-(2-phenylpropyl)-1-(3,3,3-trifluoropropyl)thieno[2,3-d]pyrimidine-2,4(1H,3H)-dione (racemate)], for which the concentration for half-maximal inhibition (IC50) is 6.3 nM.
For the compound `CC(C)Cn1c(=O)c2c(C(F)F)c(C(=O)N3CCC(O)CC3)sc2n(CCOC(F)(F)F)c1=O` [Example 137, 5-(Difluoromethyl)-6-[(4-hydroxypiperidin-1-yl)carbonyl]-3-isobutyl-1-[2-(trifluoromethoxy)ethyl]thieno[2,3-d]pyrimidine-2,4(1H,3H)-dione], the IC50 was determined as 12 nM.
To `Cc1c(C(=O)N2CCC(O)CC2)sc2c1c(=O)n(CCC=C(F)F)c(=O)n2CCC(F)(F)F` [Example 106, 3-(4,4-Difluorobut-3-en-1-yl)-6-[(4-hydroxypiperidin-1-yl)carbonyl]-5-methyl-1-(3,3,3-trifluoropropyl)thieno [2,3-d]pyrimidine-2,4(1H,3H)-dione] belongs 19 nM; to `CCCn1c(=O)c2c(C(F)F)c(C(=O)N3CCC(O)CC3)sc2n(CCOC(F)(F)F)c1=O` [Example 150, 5-(Difluoromethyl)-6-[(4-hydroxypiperidin-1-yl)carbonyl]-3-propyl-1-[2-(trifluoromethoxy)ethyl]thieno[2,3-d]pyrimidine-2,4(1H,3H)-dione], 9.8 nM.
For the compound `Cc1c(C(=O)N2CCC(O)CC2)sc2c1c(=O)n(CCc1ccccc1Cl)c(=O)n2CCC=C(F)F` [Example 7, 3-[2-(2-Chlorophenyl)ethyl]-1-(4,4-difluorobut-3-en-1-yl)-6-[(4-hydroxypiperidin-1-yl)carbonyl]-5-methylthieno[2,3-d]pyrimidine-2,4(1H,3H)-dione], the IC50 was 110 nM.
Regarding `COc1ccc(CCn2c(=O)c3c(C)c(C(=O)N4CCC(O)CC4)sc3n(CCC(F)(F)F)c2=O)cc1` [Example 14, 6-[(4-Hydroxypiperidin-1-yl)carbonyl]-3-[2-(4-methoxyphenyl)ethyl]-5-methyl-1-(3,3,3-trifluoropropyl)thieno [2,3-d]pyrimidine-2,4(1H,3H)-dione], the IC50 worked out at 190 nM.
To `CCCn1c(=O)c2c(C)c(C(=O)N3CCC(O)(CO)CC3)sc2n(CCOC(F)(F)F)c1=O` [Example 80, 6-{[4-Hydroxy-4-(hydroxymethyl)piperidin-1-yl]carbonyl}-5-methyl-3-propyl-1-[2-(trifluoromethoxy)ethyl]thieno[2,3-d]pyrimidine-2,4(1H,3H)-dione] belongs 27 nM; to `Cc1c(C(=O)N2CCC(O)CC2)sc2c1c(=O)n(CCc1cccc(Cl)c1)c(=O)n2CCC(F)(F)F` [Example 10, 3-[2-(3-Chlorophenyl)ethyl]-6-[(4-hydroxypiperidin-1-yl)carbonyl]-5-methyl-1-(3,3,3-trifluoropropyl)thieno[2,3-d]pyrimidine-2,4(1H,3H)-dione], 310 nM.
As for `CCn1c(=O)c2c(C(C)F)c(C(=O)N3CCNC(=O)C3)sc2n(CCC(F)(F)F)c1=O` (racemic) [Example 147, 3-Ethyl-5-(1-fluoroethyl)-6-[(3-oxopiperazin-1-yl)carbonyl]-1-(3,3,3-trifluoropropyl)thieno[2,3-d]pyrimidine-2,4(1H,3H)-dione], the IC50 was 100 nM.
For `Cc1c(C(=O)N2CCC(O)CC2)sc2c1c(=O)n(CC(C)(C)c1ccccc1)c(=O)n2CCC(F)(F)F` [Example 50, 6-[(4-Hydroxypiperidin-1-yl)carbonyl]-5-methyl-3-(2-methyl-2-phenylpropyl)-1-(3,3,3-trifluoropropyl)thieno[2,3-d]pyrimidine-2,4(1H,3H)-dione], the IC50 is 150 nM.
Consider `CCn1c(=O)c2c(C(C)F)c(C(=O)N3CCNC(=O)C3)sc2n(CCC(F)(F)F)c1=O` (single isomer, unassigned) [Example 148, 3-Ethyl-5-(1-fluoroethyl)-6-[(3-oxopiperazin-1-yl)carbonyl]-1-(3,3,3-trifluoropropyl)thieno[2,3-d]pyrimidine-2,4(1H,3H)-dione], for which the IC50 came to 240 nM.
In the case of `Cc1c(C(=O)N2CCC(O)CC2)sc2c1c(=O)n(CCc1ccc(F)cc1)c(=O)n2CCC(F)(F)F` [Example 12, 3-[2-(4-Fluorophenyl)ethyl]-6-[(4-hydroxypiperidin-1-yl)carbonyl]-5-methyl-1-(3,3,3-trifluoropropyl)thieno[2,3-d]pyrimidine-2,4(1H,3H)-dione], the IC50 amounted to 65 nM.
`Cc1c(C(=O)N2CCC(O)CC2)sc2c1c(=O)n(CC(C)(O)c1ccccc1)c(=O)n2CCC(F)(F)F` (single isomer, unassigned) [Example 133, 3-(2-Hydroxy-2-phenylpropyl)-6-[(4-hydroxypiperidin-1-yl)carbonyl]-5-methyl-1-(3,3,3-trifluoropropyl)thieno[2,3-d]pyrimidine-2,4(1H,3H)-dione]: the IC50 is 850 nM.
In the case of `COCCn1c(=O)n(CC(F)(F)c2ccccc2)c(=O)c2c(C)c(C(=O)N3CCNC(=O)C3)sc21` [Example 94, 3-(2,2-Difluoro-2-phenylethyl)-1-(2-methoxyethyl)-5-methyl-6-[(3-oxopiperazin-1-yl)carbonyl]thieno[2,3-d]pyrimidine-2,4(1H,3H)-dione], the IC50 was determined as 490 nM.
The figure for `CCCn1c(=O)c2c(C)c(C(=O)N3CCNC(=O)C3)sc2n(CCC(F)(F)F)c1=O` [Example 95, 5-Methyl-6-[(3-oxopiperazin-1-yl)carbonyl]-3-propyl-1-(3,3,3-trifluoropropyl)thieno [2,3-d]pyrimidine-2,4(1H,3H)-dione] is 140 nM; for `CCn1c(=O)c2c(C)c(C(=O)N3CCC(O)C(O)C3)sc2n(CCC(F)(F)F)c1=O` (single isomer, unassigned) [Example 121, 6-[(3,4-Dihydroxypiperidin-1-yl)carbonyl]-3-ethyl-5-methyl-1-(3,3,3-trifluoropropyl)thieno [2,3-d]pyrimidine-2,4(1H,3H)-dione] it is 180 nM.
`O=C1CN(C(=O)c2sc3c(c2C(F)F)c(=O)n(CCc2ccccc2)c(=O)n3CCC(F)(F)F)CCN1` [Example 97, 5-(Difluoromethyl)-6-[(3-oxopiperazin-1-yl)carbonyl]-3-(2-phenylethyl)-1-(3,3,3-trifluoropropyl)thieno[2,3-d]pyrimidine-2,4(1H,3H)-dione]: the IC50 amounted to 7 nM.
To `Cc1c(C(=O)N2CCC(O)CC2)sc2c1c(=O)n(CCc1ccccc1F)c(=O)n2CCC=C(F)F` [Example 5, 1-(4,4-Difluorobut-3-en-1-yl)-3-[2-(2-fluorophenyl)ethyl]-6-[(4-hydroxypiperidin-1-yl)carbonyl]-5-methylthieno[2,3-d]pyrimidine-2,4(1H,3H)-dione] belongs 52 nM.

For the origin of these results see US9604996B2 (Bayer Pharma Aktiengesellschaft, priority 2013, dated 2017).
